Source: patent publication US9133165B2, “Sulfonic acid salts of heterocyclylamide-substituted imidazoles” (AICURIS GMBH & CO. KG, priority 2011, dated 2015)
Values after ≈ are worked out from the molar mass of the structure shown. Read-outs that look alike come from different tables or passages of the source.

Key:
[1] = tested on: HCMV AD 169 RV-HG; assay: HCMV fluorescence reduction test; format: cell-based, human cytomegalovirus
Procedure: The test compounds are used as 50 millimolar (mM) solutions in dimethyl sulfoxide (DMSO). As reference compounds, e.g., Ganciclovir®, Foscarnet®, Cidofovir® or else the compound of Example 9A can be used. One day before the start of the test, 1.5×10^4 human foreskin fibroblasts (NHDF cells)/well are sowed in 200 μl of cell culture medium in the wells B2-G11 of 96-well plates (black with a translucent bottom). The wells at the edge position of each 96-well plate are filled only with 200 μl of medium to avoid edge effects. On the day of the test, the cell culture medium is suctioned off from the wells B2-G11 of each 96-well plate and replaced by 100 μl of virus suspension (multiplicity of infection (MOI): 0.1-0.2). The virus that is used is a recombinant HCMV, which has integrated an expression cassette for the green fluorescence protein (GFP) in the virus genome (HCMV AD 169 RV-HG, E. M. Borst, K. Wagner, A. Binz, B. Sodeik, and M. Messerle, 2008, J. Virol. 82: 2065-2078). After an incubation time of 2 hours at 37° C. and 5% CO2, the virus inoculate is suctioned off, and all wells except for the wells in Column 3 are filled with 200 μl of cell culture medium. Column 2 is not further treated and serves as a virus control. The wells in Column 3 are filled in each case in double determination with 300 μl of test substance (diluted in cell culture medium). The concentration of the respective antiviral substance in Column 3 is ˜ the 27× concentration of the EC50 value that is expected in each case. The test substance in Column 3 is diluted in 8 steps 1:3 over the 96-well plate by in each case 100 μl of a column being transferred into the right column in each case—and being mixed there with the existing 200 μl of cell culture medium. […] Then, the GFP intensity of each well of a 96-well plate is determined by means of a fluorescence reading device (FluoBox; Bayer Technology Services GmbH; Filter settings: GFP, Ex 480 nm, Em 520 nm). The EC50 of an anti-HCMV substance can be determined from the thus obtained measurement values: […]

[2] = Solubility studies in H2O; format: physicochemical; settings: water, thermodynamic from solid, 20 mg in 1 ml of H2O, stirred overnight at 25° C., filtrate analyzed by HPLC
Procedure: 1 ml of H2O each is added, and the HPLC glasses are sealed. The suspensions that are produced are stirred overnight at 25° C. To estimate the amount of dissolved substance, the suspensions are filtered via pipette microfilters, and the filtrates that are obtained are diluted 1:4 and analyzed by means of HPLC. The HPLC analysis was carried out on a […] Luna RP18 (100A)-column with the following dimensions: 5 μm 50×4.6 mm with use of an isocratic mixture of acetonitrile and H2O+0.1% TFA in the ratio 3:7.

[3] = Solubility under simulated conditions in the human stomach; format: physicochemical; settings: aqueous sodium chloride solution (0.2% by weight), pH 1.2 with hydrochloric acid, stirred for 5 hours
Procedure: The samples were then treated as described above, and the amount of free base in solution is determined by means of HPLC.

[4] = Hygroscopy; format: physicochemical; settings: approximately 46% relative atmospheric humidity and 24° C., storage time approximately 2 days
Procedure: By storing the salt of Example 1 in pure form at approximately 46% relative atmospheric humidity and 24° C., the hygroscopy of the salts according to the invention was measured.

[5] = Human betaherpesvirus 5, AD169, NHDF, 168 h, read-out: EC50 (GFP-RA), virus strain AD169 RV-HG in NHDF cells, 7 days, GFP fluorescence

SMILES	EC50 [1, 5] [nM]	solubility [2] [µg/mL]	Amount of Dissolved Free Base [3] [mg/mL]	EC50 ([1]; read-out: EC50 (GFP-RA), virus strain AD169 RV-HG in NHDF cells, 7 days, GFP fluorescence, dimesylate) [nM]	weight increase (hygroscopy) [4]
Nc1nc(O)c2ncn(COC(CO)CO)c2n1 [Ganciclovir, reference compound]	3200				
CS(=O)(=O)O.CS(=O)(=O)O.Cc1ccc(N2CCN(C(=O)c3nc(NC(=O)Nc4ccc(OC(F)(F)F)cc4)cn3C)CC2)nc1 [Example 1, N-(1-Methyl-2-{[4-(5-methylpyridin-2-yl)piperazin-1-yl]-carbonyl}-1H-imidazol-4-yl)-N′-[4-trifluoromethoxyphenyl]urea dimesylate]		> 9700	0.103	1.8	less than 0.11%
Cc1ccc(N2CCN(C(=O)c3nc(NC(=O)Nc4ccc(OC(F)(F)F)cc4)cn3C)CC2)nc1 [Example 9A, N-(1-Methyl-2-{[4-(5-methylpyridin-2-yl)piperazin-1-yl]carbonyl}-1H-imidazol-4-yl)-N′-[4-(trifluoromethoxy)phenyl]urea]	1.5	4 (≈ 7.94 µM)	0.065		
